pIC50: −log10 of the molar value. Numbered stars: 1 amine (or outer) side, 2 acyl side, 3 side chain; on linkers, the order of the positions; unused ones are H or OH. Bridge positions count the residues as written; N and C are the ends. Square brackets hold non-standard residues; d marks the D form. Peptide text beside a SMILES is read from it. Phe(4-NO2) = N[C@@H](Cc1ccc([N+](=O)[O-])cc1)C(=O)O; Phe(4-CH2NHiPr) = CC(C)NCc1ccc(C[C@H](N)C(=O)O)cc1; X1 = CC(C)CNCc1ccc(C[C@H](N[*:1])C(=O)[*:2])cc1; Phe(4-CH2NH2) = NCc1ccc(C[C@H](N)C(=O)O)cc1; d2Nal = N[C@H](Cc1ccc2ccccc2c1)C(=O)O
Experiments:
[1] = target: Somatostatin receptor type 1 (Homo sapiens, UniProt P30872); assay: Tested for ability to bind to 20 uM thick cryostat sections of a membrane pellet of cells transfected with human cloned somatostatin (sst) receptor subtype 1.
[2] = target: Somatostatin receptor type 4 (Homo sapiens, UniProt P31391); assay: Tested for ability to bind to 20 uM thick cryostat sections of a membrane pellet of cells transfected with human cloned somatostatin (sst) receptor subtype 4.
[3] = target: Somatostatin receptor type 5 (Homo sapiens, UniProt P35346); assay: Tested for ability to bind to 20 uM thick cryostat sections of a membrane pellet of cells transfected with human cloned somatostatin (sst) receptor subtype 5.
[4] = target: Somatostatin receptor type 2 (Homo sapiens, UniProt P30874); assay: Tested for ability to bind to 20 uM thick cryostat sections of a membrane pellet of cells transfected with human cloned somatostatin (sst) receptor subtype 2.
[5] = target: Somatostatin receptor type 3 (Homo sapiens, UniProt P32745); assay: Tested for ability to bind to 20 uM thick cryostat sections of a membrane pellet of cells transfected with human cloned somatostatin (sst) receptor subtype 3.
Chain of Somatostatin receptor type 3 (P32745 whole entry): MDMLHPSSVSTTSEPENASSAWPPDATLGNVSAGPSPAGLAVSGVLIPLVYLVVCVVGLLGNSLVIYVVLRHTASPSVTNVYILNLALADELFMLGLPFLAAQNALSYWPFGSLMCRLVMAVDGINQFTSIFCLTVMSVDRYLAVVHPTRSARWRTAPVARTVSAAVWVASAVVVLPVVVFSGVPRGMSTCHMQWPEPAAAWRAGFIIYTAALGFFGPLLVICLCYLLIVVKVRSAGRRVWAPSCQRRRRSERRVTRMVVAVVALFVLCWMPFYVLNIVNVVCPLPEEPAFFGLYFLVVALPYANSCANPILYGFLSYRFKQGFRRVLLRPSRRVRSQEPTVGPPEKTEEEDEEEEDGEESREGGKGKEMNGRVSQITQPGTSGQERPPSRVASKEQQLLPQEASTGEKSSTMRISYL

Chain of Somatostatin receptor type 4 (P31391 whole entry): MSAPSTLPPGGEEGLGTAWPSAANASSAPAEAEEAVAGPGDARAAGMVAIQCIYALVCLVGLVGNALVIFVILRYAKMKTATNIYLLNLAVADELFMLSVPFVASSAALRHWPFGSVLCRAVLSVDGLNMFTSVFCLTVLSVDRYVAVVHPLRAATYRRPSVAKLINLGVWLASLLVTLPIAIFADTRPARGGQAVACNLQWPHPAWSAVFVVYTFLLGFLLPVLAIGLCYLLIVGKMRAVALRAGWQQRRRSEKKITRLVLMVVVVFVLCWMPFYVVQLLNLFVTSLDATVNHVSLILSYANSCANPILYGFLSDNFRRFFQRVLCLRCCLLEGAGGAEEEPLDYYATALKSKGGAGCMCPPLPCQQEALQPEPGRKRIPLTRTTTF
Chain of Somatostatin receptor type 1 (P30872 whole entry): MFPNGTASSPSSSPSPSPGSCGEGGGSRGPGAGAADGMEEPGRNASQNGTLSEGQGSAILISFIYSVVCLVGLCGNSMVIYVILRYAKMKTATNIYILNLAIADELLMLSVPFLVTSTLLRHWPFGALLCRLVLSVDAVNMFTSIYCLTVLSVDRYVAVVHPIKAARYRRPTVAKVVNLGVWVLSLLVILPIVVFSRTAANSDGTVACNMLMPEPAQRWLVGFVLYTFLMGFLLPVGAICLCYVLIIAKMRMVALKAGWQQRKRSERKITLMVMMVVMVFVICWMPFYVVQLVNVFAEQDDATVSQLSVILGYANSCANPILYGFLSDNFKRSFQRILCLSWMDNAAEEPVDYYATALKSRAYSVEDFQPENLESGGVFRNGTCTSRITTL
Chain of Somatostatin receptor type 5 (P35346 whole entry): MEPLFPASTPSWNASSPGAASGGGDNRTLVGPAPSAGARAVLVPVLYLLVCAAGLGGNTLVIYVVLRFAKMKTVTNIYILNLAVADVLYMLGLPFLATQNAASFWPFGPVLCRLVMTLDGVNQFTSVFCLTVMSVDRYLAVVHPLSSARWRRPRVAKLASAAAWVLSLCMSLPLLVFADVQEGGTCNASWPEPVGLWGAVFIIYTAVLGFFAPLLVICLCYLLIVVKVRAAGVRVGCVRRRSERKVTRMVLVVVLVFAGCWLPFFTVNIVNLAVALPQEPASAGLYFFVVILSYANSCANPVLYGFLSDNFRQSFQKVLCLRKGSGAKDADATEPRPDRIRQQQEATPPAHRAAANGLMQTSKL
Chain of Somatostatin receptor type 2 (P30874 whole entry): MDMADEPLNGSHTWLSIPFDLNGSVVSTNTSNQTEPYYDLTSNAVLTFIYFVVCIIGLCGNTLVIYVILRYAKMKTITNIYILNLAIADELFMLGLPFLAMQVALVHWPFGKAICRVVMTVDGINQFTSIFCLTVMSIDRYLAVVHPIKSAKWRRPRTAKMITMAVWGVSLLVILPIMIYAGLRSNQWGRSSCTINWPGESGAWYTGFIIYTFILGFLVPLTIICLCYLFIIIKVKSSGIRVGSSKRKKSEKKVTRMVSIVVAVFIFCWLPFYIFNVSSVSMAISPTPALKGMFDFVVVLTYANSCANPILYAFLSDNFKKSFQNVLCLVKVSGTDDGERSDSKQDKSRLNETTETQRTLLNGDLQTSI

| pIC50 [1] | pIC50 [2] | pIC50 [3] | pIC50 [4] | pIC50 [5] | Compound |
| --- | --- | --- | --- | --- | --- |
| 6.28 | < 5.00 | < 6.00 | < 5.00 | < 5.00 | CC(C)NCc1ccc(C[C@@H]2NC(=O)[C@@H](Cc3c[nH]c4ccccc34)NC(=O)[C@H](Cc3ccc(O)cc3)NC(=O)[C@H](Cc3ccccc3)NC(=O)[C@H](CCCCN)NC(=O)[C@@H](N)CSSC[C@@H](C(=O)O)NC(=O)[C@H](CO)NC(=O)[C@H]([C@@H](C)O)NC(=O)[C@H](Cc3ccccc3)NC(=O)[C@H]([C@@H](C)O)NC2=O)cc1 |
| 6.25 | < 5.00 | < 5.00 | < 6.00 | < 6.00 | CC(C)NCc1ccc(C[C@@H]2NC(=O)[C@@H](Cc3ccc4ccccc4c3)NC(=O)[C@H](Cc3ccccc3)NC(=O)[C@H](Cc3ccccc3)NC(=O)[C@H](CCCCN)NC(=O)[C@@H](NC(=O)CCc3ccc(O)cc3)CSSC[C@@H](C(=O)O)NC(=O)[C@H](CO)NC(=O)[C@H]([C@@H](C)O)NC(=O)[C@H](Cc3ccccc3)NC(=O)[C@H]([C@@H](C)O)NC2=O)cc1 |
| < 6.00 | < 5.00 | < 5.00 | < 5.00 | < 5.00 | CC(C)CN(Cc1ccc(C[C@@H]2NC(=O)[C@@H](Cc3c[nH]c4ccccc34)NC(=O)[C@H](Cc3ccccc3)NC(=O)[C@H](Cc3ccccc3)NC(=O)[C@H](CCCCN)NC(=O)[C@@H](N)CSSC[C@@H](C(=O)O)NC(=O)[C@H](CO)NC(=O)[C@H]([C@@H](C)O)NC(=O)[C@H](Cc3ccccc3)NC(=O)[C@H]([C@@H](C)O)NC2=O)cc1)CC(C)C |
| < 6.00 | < 5.00 | < 5.00 | < 6.00 | < 6.00 | CC(C)NCc1ccc(C[C@@H]2NC(=O)[C@@H](Cc3cn(Cc4ccccc4)cn3)NC(=O)[C@H](Cc3ccccc3)NC(=O)[C@H](Cc3ccccc3)NC(=O)[C@H](CCCCN)NC(=O)[C@@H](N)CSSC[C@@H](C(=O)O)NC(=O)[C@H](CO)NC(=O)[C@H]([C@@H](C)O)NC(=O)[C@H](Cc3ccccc3)NC(=O)[C@H]([C@@H](C)O)NC2=O)cc1 |
| 6.01 | < 6.00 | < 5.00 | < 5.00 | < 6.00 | CC(C)NCc1ccc(C[C@@H]2NC(=O)[C@@H](Cc3ccc4ccccc4c3)NC(=O)[C@H](Cc3ccccc3)NC(=O)[C@H](Cc3ccccc3)NC(=O)[C@H](CCCCN)NC(=O)[C@H](NC(=O)CCc3ccc(O)cc3)CSSC[C@@H](C(=O)O)NC(=O)[C@H](CO)NC(=O)[C@H]([C@@H](C)O)NC(=O)[C@H](Cc3ccccc3)NC(=O)[C@@H]([C@@H](C)O)NC2=O)cc1 (stereo in doubt; 31) |
| 7.46 | < 6.00 | < 6.00 | < 6.00 | 6.01 | CC(C)NCc1ccc(C[C@@H]2NC(=O)[C@@H](Cc3ccc4ccccc4c3)NC(=O)[C@H](Cc3ccc([N+](=O)[O-])cc3)NC(=O)[C@H](Cc3ccccc3)NC(=O)[C@H](CCCCN)NC(=O)[C@@H](N)CSSC[C@@H](C(=O)O)NC(=O)[C@H](CO)NC(=O)[C@H]([C@@H](C)O)NC(=O)[C@H](Cc3ccccc3)NC(=O)[C@H]([C@@H](C)O)NC2=O)cc1 (H-CKF[Phe(4-NO2)][d2Nal][Phe(4-CH2NHiPr)]TFTSC-OH; disulfide 1-11) |

More lines, now with the values behind:

| Compound | pIC50 [1] | pIC50 [2] | pIC50 [3] | pIC50 [4] | pIC50 [5] |
| --- | --- | --- | --- | --- | --- |
| CCN=C(NCC)NCCCC[C@@H]1NC(=O)[C@@H](Cc2c[nH]c3ccccc23)NC(=O)[C@H](Cc2ccccc2)NC(=O)[C@H](Cc2ccccc2)NC(=O)[C@H](CCCCN)NC(=O)[C@@H](N)CSSC[C@@H](C(=O)O)NC(=O)[C@H](CO)NC(=O)[C@H]([C@@H](C)O)NC(=O)[C@H](Cc2ccccc2)NC(=O)[C@H]([C@@H](C)O)NC1=O | 6.35 | < 6.00 | < 5.00 | < 5.00 | < 6.00 |
| C[C@@H](O)[C@@H]1NC(=O)[C@H](Cc2ccccc2)NC(=O)[C@H]([C@@H](C)O)NC(=O)[C@H](CCCCN)NC(=O)[C@@H](Cc2c[nH]c3ccccc23)NC(=O)[C@H](Cc2ccccc2)NC(=O)[C@H](Cc2ccccc2)NC(=O)[C@H](CC(N)=O)NC(=O)[C@H](CCCCN)NC(=O)[C@@H](N)CSSC[C@@H](C(=O)O)NC(=O)[C@H](CO)NC1=O | 8.27 | 8.46 | 7.78 | 9.48 | 8.37 |
| CC(C)CNCc1ccc(C[C@@H]2NC(=O)[C@@H](Cc3c[nH]c4ccccc34)NC(=O)[C@H](Cc3ccccc3)NC(=O)[C@H](Cc3ccccc3)NC(=O)[C@H](CCCCN)NC(=O)[C@@H](N)CSSC[C@@H](C(=O)O)NC(=O)[C@H](CO)NC(=O)[C@H]([C@@H](C)O)NC(=O)[C@H](Cc3ccccc3)NC(=O)[C@H]([C@@H](C)O)NC2=O)cc1 (H-CKFF[dW][X1]TFTSC-OH; disulfide 1-11) | 6.89 | < 6.00 | < 6.00 | < 6.00 | 6.42 |
| C[C@@H](O)[C@@H]1NC(=O)[C@H](Cc2ccccc2)NC(=O)[C@H]([C@@H](C)O)NC(=O)[C@H](Cc2ccc(CN)cc2)NC(=O)[C@@H](Cc2c[nH]c3ccccc23)NC(=O)[C@H](Cc2ccccc2)NC(=O)[C@H](Cc2ccccc2)NC(=O)[C@H](CCCCN)NC(=O)[C@@H](N)CSSC[C@@H](C(=O)O)NC(=O)[C@H](CO)NC1=O (H-CKFF[dW][Phe(4-CH2NH2)]TFTSC-OH; disulfide 1-11) | 6.51 | 6.57 | 6.72 | 6.67 | 6.56 |
| CC(C)NCc1ccc(C[C@@H]2NC(=O)[C@@H](Cc3ccc4ccccc4c3)NC(=O)[C@H](Cc3ccccc3)NC(=O)[C@H](Cc3ccccc3)NC(=O)[C@H](CCCCN)NC(=O)[C@@H](NC(=O)[C@@H](N)Cc3ccc(O)cc3)CSSC[C@@H](C(=O)O)NC(=O)[C@H](CO)NC(=O)[C@H]([C@@H](C)O)NC(=O)[C@H](Cc3ccccc3)NC(=O)[C@H]([C@@H](C)O)NC2=O)cc1 | 7.62 | < 6.00 | < 6.00 | < 6.00 | 6.20 |
| C[C@@H](O)[C@@H]1NC(=O)[C@H](Cc2ccccc2)NC(=O)[C@H]([C@@H](C)O)NC(=O)[C@H](Cc2ccc(CN)cc2)NC(=O)[C@@H](Cc2ccc3ccccc3c2)NC(=O)[C@H](Cc2ccccc2)NC(=O)[C@H](Cc2ccccc2)NC(=O)[C@H](CCCCN)NC(=O)[C@@H](N)CSSC[C@@H](C(=O)O)NC(=O)[C@H](CO)NC1=O | 6.46 | < 6.00 | 6.41 | 6.46 | 7.09 |
